According to patent US4704384A, “Aziridinyl quinone antitumor agents” (priority 1981, dated 1987):
“And” between values parts separate entries of the source, which are not always exact repeats. Equal values may be shown once. “Also recorded” adds a separate entry of the source. Read-outs that look alike come from different tables or passages of the source.

What was measured:
[1] = test system: lymphocytic leukemia P388; assay type: in vivo, murine; conditions: for survivors, P388: Table XI, parentheses, per 6
[2] = test system: B16 melanocarcinoma; assay type: in vivo, murine
[3] = test system: lymphoid leukemia L1210; assay type: in vivo, murine
Excerpt: (§1) A third IC tumor model, the ependymoblastoma system, was also studied. This system requires intracerebral implantation of a solid tumor fragment while the IC L1210 and IC P388 systems utilize IC inoculated ascites tumor fluid. All three use IP drug treatment however. […] Cures (survivors from the group of six mice on the last day of the experiment) are indicated.

[4] = test system: ependymoblastoma; assay type: in vivo, murine; conditions: for survivors, EM: parentheses, per 6
Excerpt: ^c Ic tumor implantation, ip QD15 treatment schedule.
as §1

[5] = Room temperature water solubility; assay type: physicochemical
Experimental: In the following examples, all melting points are uncorrected and were recorded on a Thomas-Hoover capillary melting point apparatus. Elemental analyses were performed by NIAMDD, NIH, Bethesda, Md. Fluoranil, ethyleneimine and 2-methylethyleneimine were obtained commercially. […] New compounds were identified by nmr and ir spectroscopy. In the tetraamino derivatives, the methylene protons of the aziridine rings usually occurred as a singlet at δ2.0-2.2 in CDCl3 or DMSO-d6. This absorption appeared at δ2.40 (CDCl3) for compound 11. Carbonyl absorption frequencies (nujol mull) occurred in the range 1620-1640 cm^-1 for the tetraamino compounds. Satisfactory elemental analyses (+0.4% of calculated values) are indicated by elemental symbols in Table VII. Room temperature water solubilities were determined by the incremental addition (pipet) of water to a weighed amount of compound with shaking. The solubility values in Table VII must be considered as approximate.

[6] = test system: lymphoid leukemia L1210
Excerpt: ^b Ip tumor implantation, ip QD19 treatment schedule.
^e ILS = [(treated survival + control survival) × 100%] - 100%
The L1210, P388 and B16 test systems described in Table II utilize intraperitoneal (IP) tumor implantation and IP drug treatment while the Lewis lung system employs subcutaneous tumor implantation and IP treatment. All three CNS tumor models (Table III) use intracerebral (IC) tumor implantation and IP treatment.
Aqueous saline solution (0.9%) was used as the drug vehicle. Normally, five doses were employed per experiment with the top dose chosen to produce toxicity. The lower doses were 50% of each preceeding dose.
Consistent with NCI antitumor test protocols, intraperitoneal (IP) administration of the drug was employed with all five tumor systems investigated. Tumor implantation was IP in the systems designated IP leukemia L1210 and P388 as well as B16 melanoma. Intracerebral (IC) tumor implantation was utilized in the IC L1210 and ependymoblastoma tumor systems.

[7] = test system: lymphoid leukemia L1210; conditions: cited from earlier work; for activity in L1210: prior testing
[8] = reported; Europe / Japan; cited from earlier work
[9] = test system: Lewis lung carcinoma; experiment: Lewis lung carcinoma test (subcutaneous implant, IP drug); assay type: in vivo, murine
Excerpt: ^c Subcutaneous tumor implantation, ip QD515 treatment schedule.

[10] = test system: lymphocytic leukemia P388; experiment: Intracerebral (IC) P388 antitumor test; assay type: in vivo, murine; conditions: for ILS: IP
Excerpt: as §1

[11] = Approximation of human dose from mouse optimum dose; conditions: approximated from optimum dose of 2 mg/kg in the mouse
Experimental: Using the assumptions and constants of Freireich et al., Cancer Chemother. Rep., 50, 219 (1966), and an optimum dose of 2 mg/kg in the mouse, an average human maximum tolerated dose of 10 mg per dose can be approximated. An active dose range of 2.5-10 mg per dose can be estimated.

[12] = IP, QD1-9, 1.56 mg/kg/injection
[13] = IP, QD1-9, 3.12 mg/kg/injection
[14] = IP, QD1-9, 6.25 mg/kg/injection

## NC1=C(N2CC2)C(=O)C(N)=C(N2CC2)C1=O [Compound 33, 2,5-DIZAIRIDINYL-3,6-DIAMINO-1,4-BENZOQUINONE]
[1]; QD1-9, Table IX
  OD: 0.2 mg/kg/injection
[1]; QD1-9, at OD, Table IX
  ILS: 171% and 156%
[1]; QD1-9, day 30, at OD, Table IX
  animals alive per 6: 1
[1]
  survivors, P388: 1
[2]; QD1-9, at OD, Table IX
  ILS: 31% and 19%
[3]
  activity in IC L1210: most active; also recorded: significant activity
[3]; QD1-9, Table X
  OD: 0.3 mg/kg/injection
[3]; QD1-9, at OD, Table X
  ILS: 60% and 59%
[4]
  activity in ependymoblastoma: among the most active materials
[4]; QD1-5, Table X
  OD: 0.2 mg/kg/injection
[4]; QD1-5, at OD, Table X
  ILS: 215% and 177%
[4]; QD1-5, day 60, at OD, Table X
  animals alive per 6: 4 and 6
[4]; Table XI
  survivors, EM: 6
[5]
  solubility: so insoluble in any solvent
[6]; Day 1 only (1 injection), Table VIII
  OD: 1.0 mg/kg/injection and 0.5 mg/kg/injection
[6]; Q4D, at OD, Table VIII
  ILS: 161% and 124%
[6]; Q4D, day 30, at OD, Table VIII
  animals alive per 6: 3 and 2
[6]; QD1-9 (9 injections), Table VIII
  OD: 0.4 mg/kg/injection and 0.3 mg/kg/injection
[6]; QD1-9, at OD, Table VIII
  ILS: 115% and 100%
[6]; Table XI, parentheses, per 6
  survivors, IP L1210: 3

## CC(=O)NC1=C(N2CC2)C(=O)C(NC(C)=O)=C(N2CC2)C1=O [Compound 27, reference compound]
[7]
  activity in L1210: intraperitoneal (IP) leukemia L1210 activity

## COC1=C(N2CC2)C(=O)C(OC)=C(N2CC2)C1=O [Compound 28, reference compound]
[7]
  activity in L1210: intraperitoneal (IP) leukemia L1210 activity

## CC(=O)NC1=C(Cl)C(=O)C(NC(C)=O)=C(Cl)C1=O [Compound 20, 2,5-dichloro-3,5-acetylamino-1,4-benzoquinone]
[7]
  activity in L1210: inactive

## O=C1C(Cl)=C(Cl)C(=O)C(Cl)=C1Cl [chloranil, tetrachlorobenzoquinone, reference compound]
[7]
  activity in L1210: inactive

## COC(COC(N)=O)C1=C(N2CC2)C(=O)C(C)=C(N2CC2)C1=O (centres unmarked) [Compound 30, carbazilquinone]
[8]
  clinical activity: Clinical activity has been reported

## O=C1C=C(N2CC2)C(=O)C(N2CC2)=C1N1CC1 [Compound 29, Trenimon]
[8]
  clinical activity: Clinical activity has been reported

## O=C1C(N2CC2)=C(N2CC2)C(=O)C(N2CC2)=C1N1CC1 [tetraaziridinyl derivative, reference compound]
[7]; L1210 leukemia, earlier evaluation
  ILS: 39%

## CCOC(=O)NC1=C(N2CC2)C(=O)C(NC(=O)OCC)=C(N2CC2)C1=O [Compound 9, 2,5-DIAZIRIDINYL-3,6-BIS(CARBOETHOXYAMINO)-1,4-BENZOQUINONE]
[1]
  activity in IP P388: very active
  optimum dose (OD): 1 to 2 mg/kg
  survivors, P388: 1
[1]; IP, QD1-9, 0.78 mg/kg/injection
  ILS: 111% and 99%
[1]; Table IV, QD1-9
  OD: 1.6 mg/kg/injection and 0.8 mg/kg/injection
[1]; Table IV, day 30
  survivors of 6 test mice: 1
[1]; day 5, QD1-9, 6.25 mg/kg/injection
  T-C weight change: -6.1 grams
[2]
  OD: 3.12 mg/kg
  activity in B16 melanoma: very active
[2]; [12]
  ILS: 38% and 44% and 58%
[2]; [13]
  ILS: 58% and 43% and 70%
[2]; Table IV summary, QD1-9, at OD
  % ILS: 94% and 70% and 62%
[2]; Table IV, QD1-9
  OD: 3 mg/kg/injection
[2]; as high as, at OD of 3.12 mg/kg
  activity (ILS): ≤ 70%
[9]
  activity in Lewis lung: Marginal activity
[9]; IP, 2.00 mg/kg/injection, 2 mg/kg
  ILS: 38% and 34%
[3]
  OD: 3.12 mg/kg
  activity in IC L1210: reproducible activity; also recorded: substantial
[3]; [12]
  ILS: 51% and 46%
[3]; [13]
  ILS: 84% and 79%
[3]; [14]
  ILS: 10% and 3%
[3]; Table IV summary, QD1-9, at OD
  % ILS: 84% and 79% and 63% and 58%
[3]; Table IV, QD1-9
  OD: 3 mg/kg/injection and 5 mg/kg/injection
[3]; at OD 3.12 mg/kg
  ILS: 79% and 84%
[10]
  activity in IC P388: reproducible activity; also recorded: substantial
[10]; QD1-9, 0.39 mg/kg/injection
  ILS: 7% and 2%
[10]; QD1-9, 0.78 mg/kg/injection
  ILS: 27% and 25%
[10]; QD1-9, 1.56 mg/kg/injection
  ILS: 37% and 51%
[10]; QD1-9, 3.12 mg/kg/injection
  ILS: 39% and 31%
[10]; Table IV summary, QD1-9, at OD
  % ILS: 51% and 39%
[10]; Table IV, QD1-9
  OD: 1.5 mg/kg/injection and 3 mg/kg/injection
[4]
  activity in ependymoblastoma: curative in the EM system; also recorded: very active
  optimum dose: 1 to 2 mg/kg
[4]; 1.00 mg/kg/injection, day 60 (expts 136/144)
  Cures (animals alive per six): 1/6 and 5/6
[4]; 1.00 mg/kg/injection, day 99 (expt 133)
  Cures (animals alive per six): 3/6
[4]; 2.00 mg/kg/injection, day 60 (expts 136/144)
  Cures (animals alive per six): 5/6
[4]; 2.00 mg/kg/injection, day 99 (expt 133)
  Cures (animals alive per six): 4/6
[4]; 4.00 mg/kg/injection, day 60
  Cures (animals alive per six): 4/6
[4]; QD1-5, 0.25 mg/kg/injection, expt 144
  ILS: 30%
[4]; QD1-5, 0.50 mg/kg/injection, expt 144
  ILS: 62%
[4]; QD1-5, 1.00 mg/kg/injection, expt 133 (day 99)
  ILS: 348%
[4]; QD1-5, 1.00 mg/kg/injection, expts 136/144 (day 60)
  ILS: 126% and 171%
[4]; QD1-5, 2.00 mg/kg/injection, expt 133 (day 99)
  ILS: 349%
[4]; QD1-5, 4.00 mg/kg/injection, expt 136 (day 60)
  ILS: 276%
[4]; Table IV, QD1-5
  OD: 2 mg/kg/injection and 1 mg/kg/injection
[4]; Table IV, day 60
  survivors of 6 test mice: 5 and 4 and 6
[4]; Table XI, outstanding activity
  ILS (%) EM: 277%
[4]; Table XI
  survivors, EM: 5
[4]; day 5, 0.25 mg/kg/injection
  T-C weight change: -1.5 grams
[4]; day 5, 0.50 mg/kg/injection
  T-C weight change: -1.8 grams
[4]; day 5, 8.00 mg/kg/injection
  T-C weight change: -5.0 grams
[11]
  average human maximum tolerated dose: ~10 mg per dose
[6]
  activity in IP L1210: greater L1210 activity on the QD1-9 schedule; also recorded: very active
[6]; IP, QD1-9, 0.88 mg/kg/injection
  ILS: 32%
[6]; IP, QD1-9, 1.30 mg/kg/injection
  ILS: 60%
[6]; IP, QD1-9, 2.00 mg/kg/injection
  ILS: 125%
[6]; [14]
  ILS: 27%
[6]; Q4D and QD1-9 schedules
  increase in life span (ILS): > 25%
[6]; Q4D schedule
  % ILS: 54%
[6]; QD1-9, mouse
  optimum dose (OD): 2 mg/kg and 2 to 3 mg/kg
[6]; QD1-9, reproducible
  ILS: > 100%
[6]; Table IV summary, QD1-9, at OD
  % ILS: 100%
[6]; Table IV, QD1-9
  OD: 3 mg/kg/injection and 2 mg/kg/injection and 4 mg/kg/injection

## O=C1C(Cl)=C(N2CC2)C(=O)C(Cl)=C1N1CC1 [Compound 4, 2,5-dichloro-3,6-diaziridinyl-1,4-benzoquinone]
[7]
  activity in L1210: inactive

## COC1=C(Br)C(=O)C(OC)=C(Br)C1=O [Compound 14, 2,5-dibromo-3,6-dimethoxy-1,4-benzoquinone]
[7]
  activity in L1210: inactive
